Test [1] relates to parental wild-type Ba/F3 cells. Kind of test: Ba/F3 (WT) cell proliferation assay (Alamar Blue). Format: cell-based. The following applies: Mus musculus; for inhibition at 3 µM / inhibition at 10 µM: BaF3, read-out: BaF3 WT prolif, % inhibition. (Alamar Blue is a resazurin reagent that responds to reducing activity.)
Test [2] deals with LP-1 cell line (FGF-1/Heparin induced pERK). Kind of test: Cell-based pERK ELISA, LP-1 cells. The following applies: Homo sapiens; for IC50: LP-1, read-out: LP-1 pERK ELISA (μM); for inhibition at 10 µM: LP-1, read-out: LP-1 pERK ELISA, % inhibition. For orientation: ELISA stands for enzyme-linked immunosorbent assay.
The mark [3] stands for this setting: BaF3, 72 h, read-out: BaF3 WT prolif (μM).
Where [4] appears, read: BaF3, 72 hours, Alamar Blue, read-out: BaF3 WT prolif.

Structures are written as SMILES. Where a name gives a salt, the structure may show the parent alone. Read-outs that look alike come from different tables or passages of the source.

Consider 22 molecules from patent publication US8796244B2, “Imidazopyridine derivatives as inhibitors of receptor tyrosine kinases” (Astex Therapeutics Ltd, priority 2008, dated 2014).

One may read the inhibition as the relative decrease from the control value, in per cent.

Regarding `NC(=O)c1ccnc(-c2ccn3c(-c4cccc(NC(=O)NCC(F)(F)F)c4)cnc3c2)n1` [Example 185], in test [1], the inhibition at 3 µM is 0%. Moreover, in test [2], the IC50 amounted to 0.14 µM.
For the molecule `O=C1CN(c2ncc(-c3ccn4c(-c5cccc(NC(=O)NCC(F)(F)F)c5)cnc4c3)cn2)CCN1` [Example 94, 1-(3-{7-[2-(3-Oxo-piperazin-1-yl)-pyrimidin-5-yl]-imidazo[1,2-a]pyridin-3-yl}-phenyl)-3-(2,2,2-trifluoro-ethyl)-urea hydrochloride], the IC50 in test [1] (setting [3]) came to 5.8 µM; in test [2] it was 0.95 µM.
With `O=C(NCC(F)(F)F)Nc1cccc(-c2cnc3cc(-c4ccc(=O)n(CCO)n4)ccn23)c1` [Example 126, 1-(3-{7-[1-(2-Hydroxy-ethyl)-6-oxo-1,6-dihydro-pyridazin-3-yl]-imidazol[1,2-a]pyridin-3-yl}-phenyl)-3-(2,2,2-trifluoro-ethyl)-urea], the inhibition at 10 µM in test [1] amounted to 3.7%. Moreover, the IC50 in test [2] is 0.98 µM.
For `NC(=O)Nc1cccc(-c2cnc3cc(-c4ncccn4)ccn23)c1` [Compound 337] the same measures were 23% and 1.5 µM.
For `Cc1ccc(-c2ccn3c(-c4cncc(NC(=O)NCC(F)(F)F)c4)cnc3c2)nn1` [Example 21, 1-{5-[7-(6-Methylpyridazin-yl)imidazo[1,2-a]pyridin-3-yl]pyridin-3-yl}-3-(2,2,2-trifluoroethyl)urea] the same measures were 0% and 0.41 µM.
On to `Nc1cnc(-c2ccn3c(-c4cccc(NC(=O)NCC(F)(F)F)c4)cnc3c2)nc1` [Example 174], for which the IC50 in test [1] (setting [4]) amounted to 1.5 µM; in test [2] it was 0.49 µM.
Regarding `O=C(NCC(F)(F)F)Nc1cccc(-c2cnc3cc(-c4ccc(CO)cn4)ccn23)c1` [Example 92, 1-{3-[7-(5-Hydroxymethyl-pyridin-2-yl)-imidazo[1,2-a]pyridin-3-yl]-phenyl}-3-(2,2,2-trifluoro-ethyl)-urea formate], the results for the IC50 in test [1] (setting [3]) and in test [2] were 0.53 µM and 0.11 µM, respectively.
For `CN(C)c1ccc(-c2ccn3c(-c4cccc(NC(=O)NCC(F)(F)F)c4)cnc3c2)nn1` [Example 113, 1-{3-[7-(6-Dimethylamino-pyridazin-3-yl)-imidazo[1,2-a]pyridin-3-yl]-phenyl}-3-(2,2,2-trifluoro-ethyl)-urea formate], in that order: 1.4 µM and 0.016 µM.
`NC(=O)Nc1cccc(-c2cnc3cc(-c4ncc(F)c(N)n4)ccn23)c1` [Example 167]: the inhibition at 10 µM came to 0% in test [1] and 60% in test [2].
On to `COc1cnc(-c2ccn3c(-c4cccc(NC(=O)NCC(F)(F)F)c4)cnc3c2)nc1` [Example 138, 1-{3-[7-(5-Methoxy-pyrimidin-2-yl)-imidazo[1,2-a]pyridin-3-yl]-phenyl}-3-(2,2 ,2-trifluoro-ethyl)-urea], for which the inhibition at 3 µM in test [1] was found to be 36%. The IC50 in test [2] is 0.038 µM.
For the molecule `CC(C)(CO)Nc1ccc(-c2ccn3c(-c4cccc(NC(=O)NCC(F)(F)F)c4)cnc3c2)nn1` [Example 81, 1-(3-{7-[6-(2-Hydroxy-1,1-dimethyl-ethylamino)-pyrid-azin-3-yl]-1,7-dihydro-imidazo[1,2-a]pyridin-3-yl}-phenyl)-3-(2,2,2-trifluoro-ethyl)-urea hydrochloride], the inhibition at 3 µM in test [1] stood at 20%. Besides, the IC50 in test [2] was found to be 0.028 µM.
For the molecule `COCCNc1ccc(-c2ccn3c(-c4cccc(NC(=O)NCC(F)(F)F)c4)cnc3c2)nn1` [Example 80, 1-(3-{7-[6-(2-Methoxy-ethylamino)-pyridazin-3-yl]-imidazo[1,2-a]pyridin-3-yl}-phenyl)-3-(2,2,2-trifluoro-ethyl)-urea hydrochloride], in test [1], the inhibition at 10 µM worked out at 0%. In addition, the IC50 in test [2] came to 0.039 µM.
On to `COCCc1nnc(-c2ccn3c(-c4cccc(NC(=O)NCC(F)(F)F)c4)cnc3c2)s1` [Compound 319], for which the IC50 in test [1] (setting [4]) was 0.15 µM; in test [2], 0.012 µM.
As for `Cc1cccc(-c2ccn3c(-c4cccc(NC(=O)NCC(F)(F)F)c4)cnc3c2)n1` [Example 98, 1-{3-[7-(6-Methyl-pyridin-2-yl)-imidazo[1,2-a]pyridin-3-yl]-phenyl}-3-(2,2,2-trifluoro-ethyl)-urea bis-hydrochloride], the IC50 in test [1] (setting [3]) turned out to be 0.7 µM; in test [2], 0.02 µM.
Consider `Nc1nc(-c2ccn3c(-c4cccc(NC(=O)NCC(F)(F)F)c4)cnc3c2)ncc1F` [Example 102, 1-{3-[7-(4-Amino-5-fluoro-pyrimidin-2-yl)-imidazo[1,2-a]pyridin-3-yl]-phenyl}-3-(2,2,2-trifluoro-ethyl)-urea bis-hydrochloride], for which the IC50 in test [1] (setting [3]) worked out at 2.3 µM; in test [2], 0.0939 µM.
Regarding `Cn1nc(-c2ccn3c(-c4cccc(NC(=O)NCC(F)(F)F)c4)cnc3c2)ccc1=O` [Example 62, 1-{3-[7-(1-Methyl-6-oxo-1,6-dihydro-pyridazin-3-yl)-imidazo[1,2-a]pyridin-3-yl]-phenyl}-3-(2,2,2-trifluoro-ethyl)-urea hydrochloride], the IC50 in test [1] (setting [3]) was 1.1 µM; in test [2] it was 0.11 µM.
For `Cc1cnc(-c2ccn3c(-c4cccc(NC(=O)NCC(F)(F)F)c4)cnc3c2)nc1` [Example 58, 1-{3-[7-(5-Methyl-pyrimidin-2-yl)-imidazo[1,2-a]pyridin-3-yl]-phenyl}-3-(2,2,2-trifluoro-ethyl)-urea hydrochloride], in that order: 0.7 µM and 0.077 µM.
On to `Nc1cnc(-c2ccn3c(-c4cccc(NC(=O)NCC(F)(F)F)c4)cnc3c2)cn1` [Example 85, 1-{3-[7-(5-Amino-pyrazin-2-yl)-imidazo[1,2-a]pyridin-3-yl]-phenyl}-3-(2,2,2-trifluoro-ethyl)-urea formate], for which the IC50 in test [1] (setting [3]) was 0.17 µM; in test [2], 0.065 µM.
In the case of `O=C(NCC(F)(F)F)Nc1cncc(-c2cnc3cc(-c4ncccn4)ccn23)c1` [Example 35, 1-[5-(7-Pyrimidin-2-yl-imidazo[1,2-a]pyridine-3-yl)pyridin-3-yl]-3-(2,2,2-trifluoroethyl)urea hydrochloride], the inhibition at 10 µM in test [1] worked out at 0%. Besides, in test [2], the IC50 amounted to 0.33 µM.
For `COc1cc(OC)nc(-c2ccn3c(-c4cccc(NC(=O)NCC(F)(F)F)c4)cnc3c2)n1` [Example 48, 1-{3-[7-(4,6-Dimethoxy-pyrimidin-2-yl)-imidazo[1,2-a]pyridin-3-yl]-phenyl}-3-(2,2,2-trifluoro-ethyl)-urea hydrochloride] the same measures were 0% and 0.13 µM.
Consider `O=C(NCC(F)(F)F)Nc1cccc(-c2cnc3cc(-c4ccnnc4)ccn23)c1` [Example 88, 1-[3-(7-Pyridazin-4-yl-imidazo[1,2-a]pyridin-3-yl)-phenyl]-3-(2,2,2-trifluoro-ethyl)-urea formate], for which the results for the inhibition at 10 µM in test [1] and in test [2] were 0% and 16%, respectively.
For the molecule `O=C(NCC(F)(F)F)Nc1cccc(-c2cnc3cc(-c4nc5c(s4)CNCC5)ccn23)c1` [Example 53, 1-{3-[7-(4,5,6,7-Tetrahydro-thiazolo[5,4-c]pyridin-2-yl)-imidazo[1,2-a]pyridin-3-yl]-phenyl}-3-(2,2,2-trifluoroethyl)-urea formate], the IC50 is 4.1 µM in test [1] (setting [3]) and 0.023 µM in test [2].
